Experimental data as given in patent publication US10577387B1, “Platinum (II) complexes containing N-heterocyclic carbene ligand and pincer ligands, synthesis, and their applications in cancer treatment” (priority 2018, dated 2020).

Tests used:
HCT116 = assay: MTT assay, in vitro cytotoxicity; type: cell-based, human; conditions: 72 h
Method: (§1) The cell lines were maintained in cell culture media (Minimum essential medium (MEM) for HeLa; and Dulbecco's modified eagle medium (DMEM) for MDA-MB-231 and MiHa, Roswell Park Memorial Institute (RPMI) medium for NCI-H460 and HCT116 supplemented with fetal bovine serum (10 vol %), streptomycin (100 μg/ml) and penicillin (100 U/ml) in an incubator (5% CO2) at 37° C.
(§2) The inhibition of cell growth by different metal complexes were determined by MTT assay. Firstly, 4×10^3 to 8×10^3 cells were seeded on 96-well culture plates for 24 h. Then, different concentrations of complex was added into different wells by serial dilution and the cells were incubated with complex for 48-72 h. After that, 10 μl of MTT solution (5 mg/ml) was added per well and the plate was incubated for 4 h at 37° C. in a humidified atmosphere of 5% CO2. Viable cells with active metabolism converted MTT into a purple colored formazan product. In order to solubilize the formazan for absorbance readings, 100 μl of SDS (0.1 g/ml, 0.01 M HCl) was added per well and the plate was kept in a dark and humidified chamber overnight. Finally, the absorbance at 580 nm of each well was monitored by microtiter plate reader.
(§3) The growth inhibition by a specific complex was represented by IC50 (concentration of a complex causing 50% inhibition of cell growth). Each experiment was repeated three times and the results were expressed as means±standard deviation (SD).

HeLa = assay: MTT assay, in vitro cytotoxicity; type: cell-based, human; conditions: 72 h
Method: as §1, §2, §3

NCI-H460 = assay: MTT assay, in vitro cytotoxicity; type: cell-based, human; conditions: 72 h
Method: as §1, §2, §3

MDA-MB-231 = assay: MTT assay, in vitro cytotoxicity / cell growth; type: cell-based, human; conditions: for cell growth inhibition, agent alone: 1b at sub-cytotoxic concentration, LY294002 or U0126 10 or 20 μM
MiHa = assay: MTT assay, in vitro cytotoxicity, non-tumorigenic hepatocyte; type: cell-based, human; conditions: 72 h
Method: as §1, §2
The growth inhibition by a specific complex was represented by IC50 (concentration of a complex causing 50% inhibition of cell growth). […]

HeLa cells [1] = assay: Confocal fluorescence microscopy co-localization with organelle probes; type: cell-based, human; conditions: 1b 5 μM
Method: HeLa cells (2×10^5 cells) were seeded in a one chamber slide (Nalgene; Nunc) with culture medium (2 mL per well) and incubated at 37° C. in a humidified atmosphere of 5% CO2/95% air for 24 h. After treating with 1b (5 μM) for 1 h, ER-tracker™ red (1 μM), Mitotracker® deep red (50 nM) or Lysotracker® deep red (50 nM) were incubated with cells for 10 min, and then the cells were washed with PBS twice. Confocal fluorescence images were captured using a Carl Zeiss LSM510 Meta confocal microscope with the use of 488 and 543 nm/633 nm lasers for the excitation of complex 1b and red/deep red tracker respectively, under a Plan-Apochromat 63×1.40NA oil-immersion objective.

[2] = system: PERK, eIF2α, CHOP in MDA-MB-231 cells; assay: Western blot of ER stress-related proteins; type: cell-based, human; conditions: 5 uM for 6, 12, 24 and 48 h
Method: (§4) MDA-MB-231 cells (5×10^5 cells) were incubated with Pt compound and washed with phosphate-buffered saline (PBS), lysed with radioimmunoprecipitation assay buffer (1% Triton X-100, 10% glycerol, 150 mM NaCl, 5 mM sodium fluoride, 1 mM sodium vanadate and protein inhibitor cocktail) for 15 min at 4° C. The cell lysates were centrifuged at 13,000 rpm for 15 min at 4° C. The protein concentrations of the extracts were determined using a BCA protein assay kit (Beyotime, Haimen, China). Specific amount of protein sample (30 μg) was then boiled for 5 min in a 5× sample buffer (50 mM Tris (pH 7.4), 4% sodium dodecyl sulfate (SDS), 10% glycerol and 50 μg/mL bromophenol blue) at a volume ratio of 4:1. Protein samples were subjected to SDS-polyacrylamide gel electrophoresis (PAGE), transferred to polyvinylidene difluoride membranes and immunoblotted with primary anti-bodies. After further incubation with horseradish peroxidase (HRP)-conjugated secondary antibody, the blot was stained with a chemiluminescent detection reagent and subsequently analyzed by enhanced chemiluminescence. Protein expression was visualized on Kodak Biomax X-ray film.

[3] = system: PARP, caspases 3 and 9 in MDA-MB-231 cells; assay: Western blot of apoptosis-related proteins; type: cell-based, human; conditions: 48 h
Method: as §4

[4] = system: p15, cyclin D1/D3, CDK 4/6 in MDA-MB-231 cells; assay: Western blot of G0/G1 phase-related proteins; type: cell-based, human; conditions: 24 h
Method: as §4

HeLa cells [5] = assay: JC1 staining (mitochondrial membrane potential); type: cell-based, human; conditions: with increasing dosage, 2 h
MDA-MB-231 cells [6] = assay: Wound closure (scratch) migration assay; type: cell-based, human; conditions: for inhibition of migration, agent alone: 1b at sub-cytotoxic concentration, LY294002 or U0126 10 or 20 μM
Method: MDA-MB-231 cells were cultured in 6-well plate and allowed to form a confluent monolayer for 24 h. After serum starved for 4 h, cells were scratched by pipette tips, washed with PBS and photographed by using a fluorescence microscope (20× objective). The fresh medium supplemented with 10 vol % FBS was added into each well with different concentrations of Pt complex. After incubated for 24 h, cells were photographed again at three random areas. Then the migrated cells were quantified by manual counting and inhibition ratio was expressed as % of control.

MDA-MB-231 cells [7] = assay: Transwell invasion assay; type: cell-based, human; conditions: for inhibition of invasion, agent alone: 1b at sub-cytotoxic concentration, LY294002 or U0126 10 or 20 μM
MS1 cells [8] = assay: Tube formation assay; type: cell-based; conditions: 3 h, sub-cytotoxic concentrations
Method: The In Vitro Angiogenesis Kit (CaymanChemical) was used in the tube formation assay. Firstly, the ECMatrix solution and 10× Diluent Buffer were mixed in 9:1 (v/v) ratio on ice. Then 50 μL of mixture was transferred into each well of 96-well plate and incubated at 37° C. for 1 h for polymerization. Then, around 4×10^4 of MS-1 cells in 100 μL DMEM medium was pre-mixed with different concentrations of complex and that cell-complex containing medium was added on the top of the polymerized matrix. […]

in vitro = type: cell-based; conditions: mouse
Method: (§5) At the same time, the cell viability under the same condition was determined by MTT assay. Again, around 4×10^4 MS-1 cells in 100 μL DMEM medium was pre-mixed with different concentrations of complex and they were seeded into 96-well plate. After 2 h, the medium was removed and fresh medium with 10% MTT was added per well and the plate was incubated for 4 h at 37° C. in a humidified atmosphere of 5% CO2. In order to solubilize the formazan for absorbance readings, 100 μl of SDS (0.1 g/ml, 0.01 M HCl) was added per well and the plate was kept in a dark and humidified chamber overnight. Finally, the absorbance at 580 nm of each well was monitored by microtiter plate reader. Each experiment was repeated three times and the results were expressed as means±standard deviation (SD).

MS1 cells [9] = assay: in vitro; type: cell-based
Method: as §5

[10] = system: uPA, MMP-9, TIMP-1 in MDA-MB-231 cells; assay: Western blot of uPA, MMP-9 and TIMP1; type: cell-based, human
Method: as §4

[11] = system: FAK, ERK, Akt in MDA-MB-231 cells; assay: Western blot of phosphorylated and total FAK, ERK and Akt; type: cell-based, human
Method: as §4

HUVECs [12] = assay: Conditioned medium (VEGF)-mediated migration; type: cell-based, human; conditions: MDA-MB-231 conditioned medium VEGF 13.4 ng/mL, 24 h, sub-cytotoxic
Method: (§6) Human umbilical vein endothelial cells (HUVEC) were cultured in endothelial cell growth medium (ECGM): M199 medium (Life Technologies, Invitrogen) supplemented with 15 vol % fetal bovine serum at 37° C. in a humidified (5% CO2, 95% air) atmosphere.

HUVECs [13] = assay: Conditioned medium (VEGF)-mediated transwell invasion; type: cell-based, human; conditions: MDA-MB-231 conditioned medium VEGF 13.4 ng/mL, 24 h, sub-cytotoxic
Method: as §6
Effects of Pt complex on the invasion of MDA-MB-231 or HUVECs cells were performed on Transwell Boyden chamber (8 μm pore, Corning, Lowel, Mass.) pre-coated with matrigel for 4 h at 37° C. The cell suspension (2.5×10^5 cells/ml, 100 μL) in serum free medium (SFM) was placed to the upper compartment of chamber. The bottom chambers were supplemented with 500 μl complete medium (10 vol % FBS) or conditioned medium (with VEGF=13.4 ng/ml from MDA-MB-231 cells) containing indicated concentrations of Pt complex. After incubated for 24 h, the non-migrant cells from the upper face were scraped using a cotton swab. The invaded cells on the lower face were fixed with methanol, stained with Giemsa, photographed by a phase-contrast microscope (200×, Nikon TS 100). The invaded cells were quantified by manual counting and inhibition ratio was expressed as % of control.

HUVECs [14] = assay: Conditioned medium (VEGF)-mediated tube formation; type: cell-based, human; conditions: MDA-MB-231 conditioned medium VEGF 13.4 ng/mL, 24 h, sub-cytotoxic
Method: as §6

chicken CAM = assay: Chorioallantoic membrane (CAM) assay, ex vivo angiogenesis; conditions: VEGF 50 ng/mL, one day
Method: The effect of Pt complex on the ex vivo angiogenesis was determined by chorioallantoic membrane (CAM) assay. Briefly, fertilized chicken eggs were incubated at 37° C. in a humidified incubator with forced air circulation. After 5-6 days, eggs were cracked open and methylcellulose discs containing different concentrations of 1d (40 μl/egg) and VEGF (50 ng/mL) were gently implanted on top of chicken CAM. After one day incubation, the CAM was observed under a microscope (Olympus BX 40) and photographed. VEGF treatment group was used as a positive control. Three eggs per group were used in each experiment and three independent experiments were performed.

MDA-MB-231 xenografts = assay: In vivo tumor growth inhibition; design: species or system nude mice; conditions: 5 and 2.5 mg/kg
Method: All experiments were followed to the guidelines of the Laboratory Animal Unit of the University of Hong Kong. Ten mice were randomly divided into two groups (5 mice for each group) for two different treatment conditions.
Around 4×10^6 of cancer cells in 100 μL of PBS were injected into right back flanks of the mice through subcutaneous injection. […] The size of the tumors were measured by a ruler every 2-3 days until the mice were sacrificed. The longest diameter (a) and shortest diameter (b) of the tumor would be picked up and the volume of the tumor could be calculated through the following formula: V=0.52×ab^2
It should be noted that the body weight of the mice were also be recorded in order to examine the side effect of the drugs.
To calculate the inhibition effect of the drug, the ratio of enlargement of tumor volume between the drug treatment group and control group would be applied in the following formula:
where Vt and Vt′ are the tumor volumes of drug treatment and control group respectively; V0 and V0′ are the tumor volume at the 0 day of drug treatment and control group respectively.

[15] = system: MDA-MB-231 xenograft tumor tissues; assay: Immunohistochemical analysis of tumor tissues from treated mice; type: in vivo, nude mice; conditions: 2.5 and 5.0 mg/kg
[16] = Blood biochemistry, systemic toxicity; conditions: treated vs untreated mice bearing MDA-MB-231 xenografts
[17] = increasing concentration (24 h) or incubation time (2 μM)
[18] = different concentrations 24 h or 2 μM over time

N.N.[Cl][Pt][Cl] [Cisplatin, cis-diamminedichloroplatinum]
IC50 (HCT116): 11.8 ± 1.36 µM
IC50 (HeLa): 12.9 ± 3.84 µM
IC50 (NCI-H460): 24.9 ± 3.19 µM
IC50 (MDA-MB-231; MTT, 72 h): 77.2 ± 7.82 µM
IC50 (MiHa): > 100 µM

CCCCN1C=CN(CCCC)[CH]1[Pt]12[n]3c(c4ccccc4c3=Nc3cccc[n+]31)=Nc1cccc[n+]12 [Complex 1b]
growth inhibition at the concentrations of the migration assay (MDA-MB-231; 0.25-1 μM): insignificant growth inhibition
cell growth inhibition, agent alone (MDA-MB-231): insignificant cell growth inhibitory effects
Pearson's correlation coefficient for co-localization with ER-Tracker (HeLa cells [1]): 0.83
CHOP level [2]: stimulated
phosphorylated PERK level [2]: significant up-regulation
phosphorylated eIF2α level [2]: stimulated
cleavage of PARP and caspases 3 and 9 [3]: cleaved
cyclin D1/D3 and CDK 4/6 expression [4]: down-regulation
p15 expression [4]: stimulation
JC1 ratio of orange to green fluorescence (HeLa cells [5]): decrease
inhibition of migration, agent alone (MDA-MB-231 cells [6]): notable inhibition
migration of MDA-MB-231 cells (MDA-MB-231 cells [6]; sub-cytotoxic 0.25-1 μM, 24 h): effectively inhibited
inhibition of invasion, agent alone (MDA-MB-231 cells [7]): notable inhibition
invasion of MDA-MB-231 cells (MDA-MB-231 cells [7]; sub-cytotoxic concentrations, 24 h): significant inhibition
angiogenesis (tube formation) of MS1 cells (MS1 cells [8]): significant inhibition
viability at 3 h (in vitro): > 90%
cell death of MS1 cells (MS1 cells [9]): no significant cell death
expression of TIMP-1 ([10]; 24 h): moderately increased
expression level of MMP-9 [10, 17]: decreased significantly
expression level of uPA [10, 17]: decreased significantly
phosphorylation of FAK at Tyr397 [11, 18]: significantly suppress
phosphorylation of FAK at Tyr925 and Tyr576/577 [11, 18]: moderately inhibited
total protein level of FAK [11, 18]: little effect
phosphorylation of Akt ([11]; dose- and time-dependent): significantly inhibited
phosphorylation of ERK ([11]; dose- and time-dependent): significantly inhibited
CM-mediated migration of HUVECs (HUVECs [12]): significantly suppressed
CM-mediated invasion of HUVECs (HUVECs [13]): significantly suppressed
CM-mediated tube formation of HUVECs (HUVECs [14]): significantly suppressed
ex vivo angiogenesis in CAM assay (chicken CAM): effective ex vivo anti-angiogenic properties
death or body weight loss of mice during the treatment (MDA-MB-231 xenografts): did not cause any death or body weight loss
CD34 staining, blood vessel formation in tumors [15]: significant inhibition of blood vessel formation
DNA fragmentation (TUNEL assay) in tumor tissues [15]: higher levels
caspase-3 in tumor tissues [15]: higher levels
expression of Ki67 in tumor tissues ([15]; vs control mice): decrease
blood glucose (GLU) [16]: higher level
blood urea nitrogen (BUN) [16]: higher level
plasma level of aspartate aminotransferase (AST) [16]: lower
plasma level of blood fat (CHOL) [16]: lower
plasma level of creatine kinase (CK) [16]: lower

N#CC(=C(/N)Sc1ccccc1N)/C(C#N)=C(\N)Sc1ccccc1N [Complex U0126, reference compound]
cell growth inhibition, agent alone (MDA-MB-231): insignificant cell growth inhibitory effects
inhibition of migration, agent alone (MDA-MB-231 cells [6]): notable inhibition
inhibition of invasion, agent alone (MDA-MB-231 cells [7]): notable inhibition
